In patent US12416036B2, “High-throughput enzyme assay for screening activity of acyltransferases” (CORNELL UNIVERSITY, priority 2021, dated 2025):
Residue numbers refer to the chain shown, from its start. “Also recorded” adds a separate entry of the source. Like-named read-outs stand apart in the source and are kept apart here. Residues, ends and D or L forms follow the SMILES beside them. *: point of attachment. 5FAM = O=C1OC2(c3ccc(O)cc3Oc3cc(O)ccc32)c2ccc(C(=O)*)cc21

What was measured:
[1] = molecular target: T1, ZDHHC3 (Homo sapiens, UniProt Q9NYG2); assay: STAT3 fatty acylation induced by ZDHHC3 in HEK293T cells (Alk14 labeling, in-gel fluorescence); format: cell-based; settings: for effect on ZDHHC3-catalyzed STAT3 acylation level: 25 μM, 6-hour treatment
T1 construct: HA; expressed in transfected cells; host or cells: HEK 293T cells
T1 sequence (Q9NYG2 1-299): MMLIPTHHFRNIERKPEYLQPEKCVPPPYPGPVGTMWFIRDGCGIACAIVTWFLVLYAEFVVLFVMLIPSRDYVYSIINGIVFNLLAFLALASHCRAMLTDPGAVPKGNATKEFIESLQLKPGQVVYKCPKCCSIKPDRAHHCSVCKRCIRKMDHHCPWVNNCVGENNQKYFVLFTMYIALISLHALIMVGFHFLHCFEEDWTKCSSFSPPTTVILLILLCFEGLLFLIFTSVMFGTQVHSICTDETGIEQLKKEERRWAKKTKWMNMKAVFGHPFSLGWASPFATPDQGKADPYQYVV
Description: Next experiments also tested the four compounds for ZDHHC3 inhibition in HEK293T cells that over-express both ZDHHC3 and STAT3. […] Thus, the results from the Acyl-cLIP assay can be used to predict cellular responses.

[2] = molecular target: T2, ZDHHC7 (Homo sapiens, UniProt Q9NXF8); assay: STAT3 fatty acylation induced by ZDHHC7 in HEK293T cells (Alk14 labeling, in-gel fluorescence); settings: for STAT3 fatty acylation (ZDHHC7): 50 μM inhibitor, 6-hour treatment; for in-cell inhibition of ZDHHC7 (overall): HEK293T cells, summary statement; for STAT3 acylation (ZDHHC7): 12- and 24-hour inhibitor treatment
T2 sequence (Q9NXF8 1-308): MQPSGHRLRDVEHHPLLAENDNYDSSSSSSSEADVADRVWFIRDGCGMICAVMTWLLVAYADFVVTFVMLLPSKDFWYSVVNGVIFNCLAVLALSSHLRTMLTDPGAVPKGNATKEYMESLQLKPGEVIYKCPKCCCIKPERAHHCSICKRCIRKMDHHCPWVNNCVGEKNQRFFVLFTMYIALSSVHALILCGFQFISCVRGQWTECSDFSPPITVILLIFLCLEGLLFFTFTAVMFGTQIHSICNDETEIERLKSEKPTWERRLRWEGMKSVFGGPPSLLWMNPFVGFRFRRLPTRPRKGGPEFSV
Method: Cells were treated with 50 μM of the inhibitors for the indicated hours and labeled with 50 μM of Alk-14 for 6 hours. […] Cells were treated with 25 μM of inhibitors for 16 hours and labeled with 50 μM of Alk-14 for 6 hours. Relative FL/Protein for both experiments was calculated by dividing fluorescence signal by the protein level from the corresponding “CBB” lane. The fatty acylation level of DMSO with Alk14 was set to 1.
Flag-tagged STAT3 and HA-tagged ZDHHC7 were expressed in HEK293T cells. The cells were incubated with the four inhibitors. During the last six hours of the incubation, 50 μM of Alk14 probe was added to metabolically label palmitoylated STAT3. After collecting and lysing the cells, STAT3 was immunoprecipitated and the levels of acylation were determined by in-gel fluorescence after click chemistry.
HEK 293T cells were transfected with STAT3-Flag and ZDHHC3-HA or ZDHHC7-HA for 36 h, and treated with 50 μM 2-BP, MY-D-2, MY-D-3, or MY-D-4 for the indicated time with 6 h Alk14 labeling (50 μM). Cells were collected and lysed in the 1% NP-40 lysis buffer (25 mM Tris-HCl pH 8.0, 10% glycerol, 150 mM NaCl, 1% Nonidet P-40) with protease inhibitor cocktail (P8340, Sigma). STAT3-Flag was purified by anti-Flag agarose beads and resuspended in 50 μL IP wash buffer (25 mM Tris-HCl pH 8.0, 150 mM NaCl, 0.2% Nonidet P-40). Click chemistry was done by adding a mixture of 3 μL of 2 mM TAMRA azide (47130, Lumiprobe), 3.6 μL of 10 mM tris[(1-benzyl-1H-1,2,3-triazol-4-yl)methyl]amine (TBTA) (T2993, TCI chemicals), 3 μL of 40 mM CuSO4, 3 μL of 40 mM tris(2-carboxyethyl)phosphine HCl (TCEP hydrochloride) (580560, Millipore) to each sample. The mixtures were mixed by vortex and incubated in dark at room temperature for 30 min. 20 μL of the 6× loading buffer was added into each reaction mixture and the mixture was boiled at 95° C. for 10 min to denature. The mixture was separated by SDS-PAGE gel. The gel was scanned by the Typhoon 7000 Variable Mode Imager (GE Healthcare Life Sciences) in the rhodamine channel to visualize the fatty acylation of STAT3 and was stained with Coomassie Brilliant Blue (B7920, Sigma) to check for protein loading. Relative FL/Protein quantification was done by ImageJ.

[3] = molecular target: T3, ZDHHC7 (Mus musculus, UniProt Q91WU6); assay: ZDHHC7 Acyl-cLIP assay (end-point method)
T3 sequence (Q91WU6 1-308): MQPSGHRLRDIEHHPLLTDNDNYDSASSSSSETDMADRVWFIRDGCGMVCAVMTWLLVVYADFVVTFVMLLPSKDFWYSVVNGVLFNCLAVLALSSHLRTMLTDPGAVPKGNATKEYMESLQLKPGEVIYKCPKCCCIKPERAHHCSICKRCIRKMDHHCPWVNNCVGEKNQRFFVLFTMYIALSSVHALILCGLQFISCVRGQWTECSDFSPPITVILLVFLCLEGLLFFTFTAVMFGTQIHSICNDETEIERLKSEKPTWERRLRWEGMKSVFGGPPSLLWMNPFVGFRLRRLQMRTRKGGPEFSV
Method: Because these inhibitors may form irreversible covalent bonds with ZDHHCs, the order of adding the reagents were changed and included a 30-minute pre-incubation time to permit the bond to form prior to the addition of the FAM peptide and palmitoyl-CoA to initiate the reaction.
n-Dodecyl β-D-maltoside (DDM, 1.3 mg) was dissolved in 1 mL of water by vigorous vortexing. Preparing for 19 samples, “Buffer A” was prepared as follows: In a 1.5 mL Eppendorf tube with the DDM solution (190 μL), MES buffer pH 6.5 (stock concentration 500 mM, 38 μL), TCEP (stock concentration 30 mM, 6.33 μL), and ZDHHC7 (stock concentration 6 μM, 19 μL) were added. For the same 19 samples, “Buffer B” was prepared as followed. In a 1.5 mL Eppendorf tube with the DDM solution (76 μL), palmitoyl-CoA (stock concentration 1.5 mM, 12.6 μL) and FAM-Kras4a substrate (stock concentration 0.5 mM, 19 μL) was added. To each well of a black 384 well plate (Corning 3575), 1 μL of inhibitor (concentration ranging from 93.75 μM to 6000 μM) was added. First, 13.3 μL of “Buffer A” was added to each well. After a 30-minute pre-incubation, 5.66 μL of “Buffer B” was added. The final concentration of the reaction mixture was 50 mM MES pH 6.4, 0.5 mM TCEP, 40 μM palmitoyl-CoA, 0.3 μM ZDHHC7, and 25 μM FAM-KRas4a substrate in 0.1% DDM solution. After 30 minutes, the reaction was quenched by adding 4 μL of 6 mM non-FAM KRas-4a substrate. The fluorescence anisotropy was measured by citation 5 with “8040561 Filter BLK ASBY GRN FP VSBL K” cube at excitation of 485/20 nm, emission of 528/20 nm, and normal read speed mode. The measurements were done in 3 replicates at each inhibitor concentration.

[4] = molecular target: T3, ZDHHC7; assay: ZDHHC7-myrGia PAT assay with [3H]palmitoyl-CoA; format: biochemical; design: myc (vector pblueBac4.5-myc3His10) (C); His (vector pblueBac4.5-myc3His10) (C); made in house; host or cells: Sf9 insect cells (baculovirus); settings: [3H]palmitoyl-CoA and myr-Gia substrate; 10 min pre-incubation at 30° C.
Method: To further evaluate the potency of the inhibitors, the four compounds were tested using ZDHHC7-catalyzed palmitoylation of myristoylated (myr) Gi protein a subunit (Gia) using an established in vitro assay with [^3H]palmitoyl-CoA. Myr-Gia was previously reported as a substrate for ZDHHC7 (R. Tsutsumi et al., Mol. Cell. Biol., 29, 435-447, 2009). ZDHHC7 and the inhibitors were pre-incubated at 30° C. for 10 min, followed by the addition of [^3H]pal-mitoyl-CoA and myr-Gia. The acylation reaction was allowed to proceed at 30° C. for 10 min, the reaction was quenched, and the proteins resolved by SDS-PAGE. The [^3H]-palmitoylated myrGia band was excised from the gel and the level of [^3H]palmitoylation was measured by scintillation counting. […] Additionally, MY-D-2 and MY-D-3 inhibited ZDHHC7 weaker than 2-BP.
(§1) Purification of ZDHHC enzymes.
ZDHHC7-myrGia PAT Assay. Rat Myr-Gia was generated by transforming C-terminally His-tagged Gia in JM101 competent cells containing the N-myristoyltransferase (NMT) plasmid. Following inoculation and induction of the bacterial cells, myr-Gia was purified from total cell lysates using Ni-NTA resin. […] The PAT reaction was then initiated by mixing the enzyme:inhibitor solution with [^3H]-palmitoyl CoA (1 μM) and myr-Gia (1 μM). The reaction was allowed to proceed for 10 min at 30° C. and then stopped with the addition of sample buffer containing 10 mM TCEP. Proteins were resolved on a Coomassie-stained gel, and the myr-Gia band was excised and dissolved in Soluene (Perkin-Elmer). The excised bands were heated at 37° C. overnight and then combined with Ultima Gold scintillation fluid (Perkin-Elmer). Radioactivity was measured by scintillation counting. IC50 values for the inhibitors were calculated by plotting the inhibition curves in GraphPad Prism.

[5] = molecular target: T4, ZDHHC3 (Mus musculus, UniProt Q8R173); assay: ZDHHC3 Acyl-cLIP assay (end-point method); format: biochemical; settings: for inhibition of ZDHHC3 compared with ZDHHC7 (Acyl-cLIP): comparison of Acyl-cLIP IC50 values
T4 construct: FLAG (C); His (C); made in house; host or cells: Sf9 insect cells (baculovirus)
T4 sequence (Q8R173 1-299): T1 sequence (Q9NYG2 1-299) with N11D, V25A, Y29F, V33A, T35A, I68V, V74A, G224A
Method: The DHHC3 IC50 value for 2-BP and MY-D-4 were approximately 250 and 50 μM, respectively (Table 1).
ZDHHC3 was assayed using the similar protocol at a final concentration of 0.6 μM.
The rest of the experiment was done identical to the ZDHHC7 assay.
as §1

[6] = molecular target: T4, ZDHHC3; assay: ZDHHC-HRas PAT assay, ZDHHC3; format: biochemical; settings: fixed inhibitor concentration of 1 μM; order MY-D-4, 2-BP, MY-D-2, MY-D-3
Method: (§2) The results of the Acyl-cLIP assay were also compared with a conventional assay using HRas protein. Next experiments screened at a fixed inhibitor concentration of 1 μM against ZDHHC3 and ZDHHC7 using [^3H]palmitoyl-CoA and HRas protein as substrates. The levels of [^3H]palmitoylated HRas were detected.
as §1
(§3) ZDHHC-HRas PAT Assay. His-HRas was purified from total cell lysates of baculovirus-infected Sf9 cells using Ni-NTA resin.

[7] = molecular target: T3, ZDHHC7; assay: ZDHHC-HRas PAT assay, ZDHHC7; format: biochemical; design: myc (vector pblueBac4.5-myc3His10) (C); His (vector pblueBac4.5-myc3His10) (C); made in house; host or cells: Sf9 insect cells (baculovirus); settings: fixed inhibitor concentration of 1 μM; order MY-D-4, 2-BP, MY-D-2, MY-D-3
Method: as §2, §1, §3

[8] = molecular target: T3, ZDHHC7; assay: Enzyme kinetics of ZDHHC7 on the FAM-KRas4a peptide by HPLC; format: biochemical; design: myc (vector pblueBac4.5-myc3His10) (C); His (vector pblueBac4.5-myc3His10) (C); made in house; host or cells: Sf9 insect cells (baculovirus); settings: ZDHHC7, 60 μM palmitoyl-CoA
Method: ZDHHC-catalyzed S-palmitoylation was detected by LC-MS. To facilitate detection by UV, two tryptophan residues were added to the C-terminus of the peptide. In a second peptide, the 5-FAM group was attached to permit detection in the acyl-cLIP assay.
In solutions containing 0.1% DMM, 50 mM MES pH 6.4, 0.5 mM TCEP, 60 μM palmitoyl-CoA, and 0.15 μM DHHC7, FAM-KRas peptide was added to final concentration ranging from 31.25 μM to 2000 μM. After 10 minutes of incubation, the reaction was quenched with 0.1% acetonitrile. After centrifuging at 17 000 g for 10 minutes, the supernatant was loaded to Shimadzu HPLC LC20 Ad with Kinetex 5u EVO C18 100 Å column (100 mm×4.60 mm, 5 μm) for UV detection at 260 nm. Using HPLC-grade water with 0.1% trifluoroacetic acid as Buffer A and HPLC-grade acetonitrile with 0.1% trifluoroacetic acid, at a constant rate of 0.5 mL/min, the linear gradient for elution was 0% Buffer B (0-2 min), 20% Buffer B (2-4 min), 40% Buffer B (4-17 min), 100% Buffer B (17-19 min), 100% Buffer B (19-24 min), 0% Buffer B (24-25 min), and 0% Buffer B (25-30 min). Product formed was quantified using the ratio of substrate and product peak areas. After the detection, Km and kcat values were measured by GraphPad Prism software.

[9] = IC50 (μM) ZDHHC7 (Acyl-cLIP), 30-minute pre-incubation with inhibitor, FAM-KRas4a peptide substrate
[10] = IC50 ZDHHC7 (Acyl-cLIP) without the pre-incubation, without pre-incubation
[11] = 30-minute pre-incubation, FAM-KRas4a peptide substrate

Structure (SMILES)	effect on ZDHHC3-catalyzed STAT3 acylation level [1]	STAT3 fatty acylation (ZDHHC7) ([2]; HEK293T)	in-cell inhibition of ZDHHC7 (overall) [2]	IC50 [3, 9] [µM]	IC50 [3, 10] [µM]	IC50 [4] [µM]	IC50 (μM) ZDHHC3 (Acyl-cLIP) [5, 11]	inhibition of ZDHHC3 in living cells (FIG. 4B) ([1]; 25 μM of inhibitors for 16 hours)	inhibition of ZDHHC3, levels of [3H]palmitoylated HRas [6]	IC50 [2] [µM]	STAT3 acylation (ZDHHC7) ([2]; HEK293T)	inhibition of ZDHHC7, levels of [3H]palmitoylated HRas [7]	IC50 [5] [µM]	inhibition of ZDHHC3 compared with ZDHHC7 (Acyl-cLIP) [5]	inhibition of ZDHHC7 (Acyl-cLIP) at highest concentration ([3]; at 150 μM)	Km [8] [µM]	time-dependent inhibition of STAT3 acylation (ZDHHC7) ([2]; 25 μM inhibitor, HEK293T)	IC50 ([3]; read-out: IC50 (μM) ZDHHC7 (Acyl-cLIP), 30-minute pre-incubation with inhibitor, FAM-KRas4a peptide substrate) [µM]	IC50 ([3]; read-out: IC50 ZDHHC7 (Acyl-cLIP) without the pre-incubation, without pre-incubation) [µM]	IC50 [5, 11] [µM]
CCCCCCCCCCCCCCC(Br)C(=O)OC [MY-D-2, methyl 2-bromohexadecanoate]	only slightly affected	only slightly decreased	only mild inhibition	38	75	29	No	–	–	–	–	–	–	–	–	–	–	–	–	–
CCCCCCCCCCCCCCC(Br)C(=O)SCCNC(C)=O [MY-D-4, S-(2-acetamidoethyl) 2-bromohexadecanethioate]	–	significantly reduced	slightly weaker than or similar potency to 2-BP; also recorded: inhibits	4.4	6.3	1.6	–	inhibits	strongest inhibition among the four compounds	1 to 5	completely eliminated	strongest inhibition among the four compounds	~50	inhibited ZDHHC3 much less than ZDHHC7	–	–	–	–	–	–
CCCCCCCCCCCCCCC(Br)C(=O)Nc1ccccc1 [MY-D-3, 2-bromo-N-phenylhexadecanamide]	did not alter	had no effect	no inhibition	> 150	–	78	No	–	–	–	–	–	–	–	no inhibition	–	–	–	–	–
CC[C@H](C)[C@H](NC(=O)c1ccc2c(c1)C(=O)OC21c2ccc(O)cc2Oc2cc(O)ccc21)C(=O)N[C@@H](CO)C(=O)N[C@@H](CCCCN)C(=O)N[C@@H](CCC(=O)O)C(=O)N[C@@H](CCC(=O)O)C(=O)N[C@@H](CCCCN)C(=O)N[C@H](C(=O)N1CCC[C@H]1C(=O)NCC(=O)N[C@@H](CS)C(=O)N[C@H](C(=O)N[C@@H](CCCCN)C(=O)N[C@H](C(=O)N[C@@H](CCCCN)C(=O)N[C@@H](CCCCN)C(=O)O)[C@@H](C)CC)C(C)C)[C@@H](C)O [FAM-KRas4a peptide] (5FAM-ISKEEKTPGCVKIKK-OH)	–	–	–	–	–	–	–	–	–	–	–	–	–	–	–	184	–	–	–	–
CCCCCCCCCCCCCCC(Br)C(=O)O (centres unmarked) [2-BP, 2-bromopalmitate, reference compound]	–	abolished	–	–	–	16	–	–	–	–	completely eliminated	–	–	inhibited ZDHHC3 much less than ZDHHC7	–	–	slightly more inhibitory effect than MY-D-4	9	12	> 250
